The subject of one assay is TNFα. The experiment in a line: IRAK4 Monocyte TNFα Cell Based Assay. Set-up: species or system human. The note with it: human monocytes, second part of Table 2 (compounds 33-343), unit inferred, read-out: EC50MONO TNF HTRF.
The target in a further assay is IRAK4 enzyme (Homo sapiens (Human), UniProt Q9NWZ3). The experiment in a line: IRAK4 Biochemical Assay (TR-FRET, STK1 KinEASE).
The mark [1] stands for this setting: second part of Table 2 (compounds 33-343), unit inferred, read-out: IC50 IRAK4-HTBS.

Like-named read-outs stand apart in the source and are kept apart here.

IRAK4 enzyme, sequence (Q9NWZ3 whole entry): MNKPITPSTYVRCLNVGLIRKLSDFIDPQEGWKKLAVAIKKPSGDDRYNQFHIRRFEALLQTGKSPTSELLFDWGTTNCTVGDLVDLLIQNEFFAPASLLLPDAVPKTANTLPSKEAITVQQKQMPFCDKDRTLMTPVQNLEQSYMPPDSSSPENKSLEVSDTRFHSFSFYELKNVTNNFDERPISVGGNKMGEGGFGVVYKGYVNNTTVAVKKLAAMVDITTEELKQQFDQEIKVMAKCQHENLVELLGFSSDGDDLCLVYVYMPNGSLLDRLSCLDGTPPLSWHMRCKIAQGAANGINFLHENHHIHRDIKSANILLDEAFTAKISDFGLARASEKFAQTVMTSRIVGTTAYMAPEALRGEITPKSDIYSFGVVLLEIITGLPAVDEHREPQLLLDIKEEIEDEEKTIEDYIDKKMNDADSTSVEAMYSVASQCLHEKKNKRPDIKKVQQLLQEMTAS

For the molecule `CC(C)Nc1cc(-c2ccc3cc(C#N)cnn23)ncc1-c1nnc(N2CCC(O)(CF)CC2)s1` [Example 189, 7-(5-(5-(4-(fluoromethyl)-4-hydroxypiperidin-1-yl)-1,3,4-thiadiazol-2-yl)-4-(isopropylamino)pyridin-2-yl)pyrrolo[1,2-b]pyridazine-3-carbonitrile], the EC50 in the assay on TNFα (Homo sapiens, Monocyte) is 16.3 nM. The molecule further displayed an IC50 at IRAK4 enzyme of 1.02 nM.
For `CC(C)Nc1cc(-c2ccc3cc(C#N)cnn23)ncc1-c1nnc(C(=O)N2CC[C@@H](CO)C2)s1` [Example 216, (R)-7-(5-(5-(3-(hydroxymethyl)pyrrolidine-1-carbonyl)-1,3,4-thiadiazol-2-yl)-4-(isopropylamino)pyridin-2-yl)pyrrolo[1,2-b]pyridazine-3-carbonitrile] the same measures were 18.1 nM and 0.78 nM.
As to `CC(=O)NC1CC2CC1CC2c1nnc(-c2cnc(-c3ccc4cc(C#N)cnn34)cc2NC(C)C)s1` (stereo not drawn) [Example 285, N-(5-(5-(6-(3-cyanopyrrolo[1,2-b]pyridazin-7-yl)-4-(isopropylamino)pyridin-3-yl)-1,3,4-thiadiazol-2-yl)bicyclo[2.2.1]heptan-2-yl)acetamide], the EC50 in the assay on TNFα (Homo sapiens, Monocyte) came to 68 nM. In addition, the 50% inhibitory concentration (IC50) at IRAK4 enzyme is 0.78 nM.
Regarding `CC(C)Nc1cc(-c2ccc3cc(C#N)cnn23)ncc1-c1nnc(N2CCC(C)(O)CC2)s1` [Example 287, 7-(5-(5-(4-hydroxy-4-methylpiperidin-1-yl)-1,3,4-thiadiazol-2-yl)-4-(isopropylamino)pyridin-2-yl)pyrrolo[1,2-b]pyridazine-3-carbonitrile], in the assay on TNFα (Homo sapiens, Monocyte), the EC50 was determined as 9.8 nM. In addition, the IC50 on IRAK4 enzyme is 0.86 nM.
For `CC(=O)N1C[C@@H]2C[C@H]1CN2c1nnc(-c2cnc(-c3ccc4cc(C#N)cnn34)cc2NC(C)C)s1` [Example 302, 7-(5-(5-((1S,4S)-5-acetyl-2,5-diazabicyclo[2.2.1]heptan-2-yl)-1,3,4-thiadiazol-2-yl)-4-(isopropylamino)pyridin-2-yl)pyrrolo[1,2-b]pyridazine-3-carbonitrile], in that order: 5.3 nM and 0.59 nM.
With `CC(C)Nc1cc(-c2ccc3cc(C#N)cnn23)ncc1-c1nnc(N2CCN(C3COC3)CC2)s1` [Example 304, 7-(4-(isopropylamino)-5-(5-(4-(oxetan-3-yl)piperazin-1-yl)-1,3,4-thiadiazol-2-yl)pyridin-2-yl)pyrrolo[1,2-b]pyridazine-3-carbonitrile], the EC50 with TNFα (Homo sapiens, Monocyte) worked out at 9.8 nM. The molecule also displayed an IC50 against IRAK4 enzyme of 0.54 nM.
Take “(S)-1-(5-(6-(3-cyanopyrrolo[1,2-b]pyridazin-7-yl)-4-(oxetan-3-ylamino)pyridin-3-yl)-1,3,4-thiadiazol-2-yl)-N-methylpyrrolidine-2-carboxamide [Compound 332]”: the EC50 in the assay on TNFα was found to be 435 nM. Also, on IRAK4 enzyme (setting [1]), the IC50 worked out at 1.61 nM.
Take “N1-((1R,5S,8s)-3-(5-(6-(3-cyanopyrrolo[1,2-b]pyridazin-7-yl)-4-(isopropylamino)pyridin-3-yl)-1,3,4-thiadiazol-2-yl)-3-azabicyclo[3.2.1]octan-8-yl)-N2-(dimethyl(oxo)-16-sulfanylidene)oxalamide [Example 103]”: the EC50 in the assay on TNFα turned out to be 1.4 nM. The IC50 at IRAK4 enzyme (setting [1]) is 0.51 nM.
Consider “N-((1R,5S,8s)-3-(5-(6-(3-cyanopyrrolo[1,2-b]pyridazin-7-yl)-4-(isopropylamino)pyridin-3-yl)-1,3,4-thiadiazol-2-yl)-3-azabicyclo[3.2.1]octan-8-yl)-2-((dimethyl(oxo)-16-sulfanylidene)amino)acetamide [Example 98]”, for which the EC50 in the assay on TNFα amounted to 3.2 nM. The IC50 on IRAK4 enzyme (setting [1]) came out at 1.13 nM.
